Reference: patent US9243002B2, “Tetracyclic heterocycle compounds and methods of use thereof for the treatment of hepatitis C” (priority 2013, dated 2016)
Read-outs that look alike come from different tables or passages of the source.

How the values were obtained:
HCV genotype 1a replicon = assay: HCV replicon assay, genotype 1a (cell ELISA for NS3/4A); format: cell-based, hepatitis C virus
Description: (§1) Measurement of inhibition by compounds was performed using the HCV replicon system. Several different replicons encoding different HCV genotypes or mutations were used. In addition, potency measurements were made using different formats of the replicon assay, including different ways of measurements and different plating formats. See Jan M. Vrolijk et al., A replicons-based bioassay for the measurement of interferons in patients with chronic hepatitis C, 110 J. VIROLOGICAL METHODS 201 (2003); Steven S. Carroll et al., Inhibition of Hepatitis C Virus RNA Replication by 2′-Modified Nucleoside Analogs, 278 (14) J. BIOLOGICAL CHEMISTRY 11979 (2003). However, the underlying principles are common to all of these determinations, and are outlined below.
(§2) Stable neomycin phosphotransferase encoding replicons-harboring cell lines were used, so all cell lines were maintained under G418 selection prior to the assay. Potency was deteremined using a cell ELISA assay with an antibody to the replicons encoded NS3/4a protease. See Caterina Trozzi et al., In Vitro Selection and Characterization of Hepatitis C Virus Serine Protease Variants Resistant to an Active-Site Peptide Inhibitor, 77 (6) J. Virol. 3669 (2003). To initiate an assay, replicon cells were plated in the presence of a dilution series of test compound in the absence of G418. Typically, the assays were performed in a 96-well plate formate for manual operation, or a 384-well plate format for automated assay. Replicon cells and compound were incubated for 96 hours. At the end of the assay, cells were washed free of media and compound, and the cells were then lysed. RNA was quantified indirectly through detection of replicon-encoded NS3/4A protein levels, through an ELISA-based assay with an antibody specific for NS3/4A. IC50 determinations were calculated as a percentage of a DMSO control by fitting the data to a four-parameter fit function and the data obtained for genotypes 1a and 1b using this method is provided in the table below.

HCV genotype 1b replicon = assay: HCV replicon assay, genotype 1b (cell ELISA for NS3/4A); format: cell-based, hepatitis C virus
Description: as §1, §2

[1] = Hepatitis C virus, 96 h, read-out: 1a IC50 (nM), genotype 1a replicon cells, 96 hours incubation, NS3/4A ELISA
[2] = Hepatitis C virus, 96 h, read-out: 1b IC50 (nM), genotype 1b replicon cells, 96 hours incubation, NS3/4A ELISA

Row | SMILES | IC50 (HCV genotype 1a replicon; [1]) | IC50 (HCV genotype 1b replicon; [2]) | other results
1 | CNC(=O)c1c(-c2cnn3ncccc23)oc2cc(N(C)S(C)(=O)=O)c(-c3ccc4c(n3)-c3cc5c(F)cccc5n3CC4)cc12 [Example 24] | 20 nM | 18.9 nM | 
2 | CNC(=O)c1c(-c2ccc(F)cc2)oc2cc(N(C)S(C)(=O)=O)c(-c3ccc4c(n3)-c3cc5c(F)cccc5n3C4CO)cc12 (stereo not drawn) [Example 55] | 0.971 nM | 1.81 nM | 
3 | CNC(=O)c1c(-c2ccc(F)cc2)oc2cc(N(C)S(C)(=O)=O)c(-c3ccc4c(n3)-c3cc5c(F)cccc5n3CC4F)cc12 (stereo not drawn) [Example 89, 5-(5,11-difluoro-5,6-dihydroindolo[1,2-h][1,7]naphthyridin-2-yl)-2-(4-fluorophenyl)-N-methyl-6-(N-methylmethylsulfonamido)benzofuran-3-carboxamide] | 2.12 nM | 5.49 nM | 
4 | CNC(=O)c1c(-c2ccc(F)cc2F)oc2cc(N(C)S(C)(=O)=O)c(-c3ccc4c(n3)-c3cc5c(F)cccc5n3C(CO)C4)cc12 (single isomer, unassigned) [Example 51, (S or R)-2-(2,4-difluorophenyl)-5-(11-fluoro-6-(hydroxymethyl)-5,6-dihydroindolo[1,2-h][1,7]naphthyridin-2-yl)-N-methyl-6-(N-methylmethylsulfonamido)benzofuran-3-carboxamide] | 4.49 nM | 3.42 nM | 
5 | CNC(=O)c1c(-c2ccc(C(F)F)cc2)oc2cc(N(C)S(C)(=O)=O)c(-c3ccc4c(n3)-c3cc5c(F)cccc5n3CC4)cc12 [Example 29, 2-(4-(difluoromethyl)phenyl)-5-(11-fluoro-5,6-dihydroindolo[1,2-h][1,7]naphthyridin-2-yl)-N-methyl-6-(N-methylmethylsulfonamido)benzofuran-3-carboxamide] | 13.5 nM | 15.5 nM | 
6 | CNC(=O)c1c(-c2ccc(F)cc2)oc2cc(N(C)S(C)(=O)=O)c(-c3ccc4c(n3)-c3cc5c(F)cccc5n3CC43CC3)cc12 [Example 97, 5-(11′-fluoro-6′H-spiro[cyclopropane-1,5′-indolo[1,2-h][1,7]naphthyridin]-2′-yl)-2-(4-fluorophenyl)-N-methyl-6-(N-methylmethylsulfonamido)benzofuran-3-carboxamide] | 10.7 nM | 9.98 nM | 
7 | CNC(=O)c1c(-c2ccc(F)cc2)oc2cc(N(C)S(C)(=O)=O)c(-c3ccc4c(n3)-c3cc5c(F)cccc5n3C(CCO)C4)cc12 (stereo not drawn) [Example 65, 5-(11-fluoro-6-(2-hydroxyethyl)-5,6-dihydroindolo[1,2-h][1,7]naphthyridin-2-yl)-2-(4-fluorophenyl)-N-methyl-6-(N-methylmethylsulfonamido)benzofuran-3-carboxamide] | 3.62 nM | 3.96 nM | 
8 | CNC(=O)c1c(-c2ccc(F)cc2)oc2cc(N(C)S(C)(=O)=O)c(-c3cc4c(cn3)CC(C)n3c-4cc4c(F)cccc43)cc12 (single isomer, unassigned) [Example 42, (S or R)-5-(11-fluoro-6-methyl-5,6-dihydroindolo[2,1-a][2,6]naphthyridin-2-yl)-2-(4-fluorophenyl)-N-methyl-6-(N-methylmethylsulfonamido)benzofuran-3-carboxamide] |  |  | IC50 (HCV genotype 1a replicon; read-out: 1a IC50, genotype 1a replicon cells, 96 hours incubation, NS3/4A ELISA): 3.1 nM; IC50 (HCV genotype 1b replicon; read-out: 1b IC50, genotype 1b replicon cells, 96 hours incubation, NS3/4A ELISA): 5.47 nM
9 | CNC(=O)c1c(-c2cnc(C)s2)oc2cc(N(C)S(C)(=O)=O)c(-c3ccc4c(n3)-c3cc5c(F)cccc5n3CC4)cc12 [Example 36, 5-(11-fluoro-5,6-dihydroindolo[1,2-h][1,7]naphthyridin-2-yl)-N-methyl-6-(N-methylmethylsulfonamido)-2-(2-methylthiazol-5-yl)benzofuran-3-carboxamide] | 10.3 nM | 10.2 nM | 
10 | CNC(=O)c1c(-c2ccc(C)nc2)oc2cc(N(C)S(C)(=O)=O)c(-c3ccc4c(n3)-c3cc5c(F)cccc5n3CC4)cc12 [Example 7] | 17.6 nM | 6.79 nM | 
11 | CNC(=O)c1c(-c2ccc(F)cc2)oc2cc(N(C)S(C)(=O)=O)c(-c3ccc4c(n3)-c3cc5cc(F)ccc5n3CC4)cc12 [Example 31, 5-(10-fluoro-5,6-dihydroindolo[1,2-h][1,7]naphthyridin-2-yl)-2-(4-fluorophenyl)-N-methyl-6-(N-methylmethylsulfonamido)benzofuran-3-carboxamide] | 4.53 nM | 4.64 nM | 
12 | CNC(=O)c1c(-c2ccc(F)cc2)oc2cc(N(C)S(C)(=O)=O)c(-c3ccc4c(n3)-c3cc5c(F)cccc5n3CC4C)cc12 (stereo not drawn) [Example 62] | 2.69 nM | 2.55 nM | 
13 | CNC(=O)c1c(-n2ccccc2=O)oc2cc(N(C)S(C)(=O)=O)c(-c3ccc4c(n3)-c3cc5c(F)cccc5n3CC4)cc12 [Example 34] | 5.38 nM | 4.66 nM | 
14 | CNC(=O)c1c(-c2ccc(C(F)F)nc2)oc2cc(N(C)S(C)(=O)=O)c(-c3ccc4c(n3)-c3cc5c(F)cccc5n3CC4)cc12 [Example 3] | 7.94 nM | 6.69 nM | 
15 | CNC(=O)c1c(-c2ccc(F)cc2)oc2cc(N(C)S(C)(=O)=O)c(-c3ccc4c(n3)-c3cc5c(F)cccc5n3C(CN3CC(F)C3)C4)cc12 (stereo not drawn) [Example 90, 5-(11-fluoro-6-((3-fluoroazetidin-1-yl)methyl)-5,6-dihydroindolo[1,2-h][1,7]naphthyridin-2-yl)-2-(4-fluorophenyl)-N-methyl-6-(N-methylmethylsulfonamido)benzofuran-3-carboxamide] | 7.23 nM | 2.79 nM | 
16 | CNC(=O)c1c(-c2ccc(F)cc2)oc2cc(N(C)S(C)(=O)=O)c(-c3ccc4ccn5c6ccc(O)nc6cc5c4n3)cc12 [Example 81] | 196 nM | 33.9 nM | 
17 | CNC(=O)c1c(-c2ccnn2C(C)C)oc2cc(N(C)S(C)(=O)=O)c(-c3ccc4c(n3)-c3cc5c(F)cccc5n3CC4)cc12 [Example 17, 5-(11-fluoro-5,6-dihydroindolo[1,2-h][1,7]naphthyridin-2-yl)-2-(1-isopropyl-1H-pyrazol-5-yl)-N-methyl-6-(N-methylmethylsulfonamido)benzofuran-3-carboxamide] | 373 nM | 197 nM | 
18 | CNC(=O)c1c(-c2ccc(F)cc2)oc2cc(N(C)S(C)(=O)=O)c(-c3cc4c(cn3)CC(C)(C)n3c-4cc4c(F)cccc43)cc12 [Example 64, 5-(11-fluoro-6,6-dimethyl-5,6-dihydroindolo[2,1-a][2,6]naphthyridin-2-yl)-2-(4-fluorophenyl)-N-methyl-6-(N-methylmethylsulfonamido)benzofuran-3-carboxamide] | 23.2 nM | 9.09 nM | 
19 | CNC(=O)c1c(-c2ccc(F)cc2)oc2cc(N(C)S(C)(=O)=O)c(-c3ccc4c(n3)-c3cc5ncccc5n3CC4)cc12 [Example 77] | 27.9 nM | 4.03 nM | 
20 | CNC(=O)c1c(-c2ccc(F)cc2F)oc2cc(N(C)S(C)(=O)=O)c(-c3ccc4c(n3)-c3cc5c(F)cccc5n3C(CO)C4)cc12 (single isomer, unassigned) [Example 50, (R or S)-2-(2,4-difluorophenyl)-5-(1.1-fluoro-6-(hydroxymethyl)-5,6-dihydroindolo[1,2-h][1,7]naphthyridin-2-yl)-N-methyl-6-(N-methylmethylsulfonamido)benzofuran-3-carboxamide] |  |  | IC50 (HCV genotype 1a replicon; genotype 1a replicon cells, 96 hours incubation, NS3/4A ELISA, read-out: 1a IC50): 1.15 nM; IC50 (HCV genotype 1b replicon; genotype 1b replicon cells, 96 hours incubation, NS3/4A ELISA, read-out: 1b IC50): 3.36 nM
21 | CNC(=O)c1c(-c2ccc(F)cc2)oc2cc(N(C)S(C)(=O)=O)c(-c3ccc4c(n3)-c3cc5c(F)cccc5n3C4)cc12 [Example 88, 5-(10-fluoro-5H-pyrido[2′,3′:3,4]pyrrolo[1,2-a]indol-2-yl)-2-(4-fluorophenyl)-N-methyl-6-(N-methylmethylsulfonamido)benzofuran-3-carboxamide] | 8.73 nM | 9.43 nM | 
